Results as given in PMC6668146, “Molecular characterization and functional analysis of the Schistosoma mekongi Ca^2+-dependent cysteine protease (calpain)” (Parasites & Vectors, 2019).
Peptide text beside a SMILES is read from it. * marks the point of attachment. Cbz = O=C(OCc1ccccc1)*

The compounds below were run against rSmeCalp1 (recombinant Schistosoma mekongi calpain 1) (Schistosoma mekongi, UniProt A0A5B8WCQ5) (assay: fluorogenic protease assay (AMC release)).
Sequence of rSmeCalp1 (recombinant Schistosoma mekongi calpain 1) (A0A5B8WCQ5 entry or part of it): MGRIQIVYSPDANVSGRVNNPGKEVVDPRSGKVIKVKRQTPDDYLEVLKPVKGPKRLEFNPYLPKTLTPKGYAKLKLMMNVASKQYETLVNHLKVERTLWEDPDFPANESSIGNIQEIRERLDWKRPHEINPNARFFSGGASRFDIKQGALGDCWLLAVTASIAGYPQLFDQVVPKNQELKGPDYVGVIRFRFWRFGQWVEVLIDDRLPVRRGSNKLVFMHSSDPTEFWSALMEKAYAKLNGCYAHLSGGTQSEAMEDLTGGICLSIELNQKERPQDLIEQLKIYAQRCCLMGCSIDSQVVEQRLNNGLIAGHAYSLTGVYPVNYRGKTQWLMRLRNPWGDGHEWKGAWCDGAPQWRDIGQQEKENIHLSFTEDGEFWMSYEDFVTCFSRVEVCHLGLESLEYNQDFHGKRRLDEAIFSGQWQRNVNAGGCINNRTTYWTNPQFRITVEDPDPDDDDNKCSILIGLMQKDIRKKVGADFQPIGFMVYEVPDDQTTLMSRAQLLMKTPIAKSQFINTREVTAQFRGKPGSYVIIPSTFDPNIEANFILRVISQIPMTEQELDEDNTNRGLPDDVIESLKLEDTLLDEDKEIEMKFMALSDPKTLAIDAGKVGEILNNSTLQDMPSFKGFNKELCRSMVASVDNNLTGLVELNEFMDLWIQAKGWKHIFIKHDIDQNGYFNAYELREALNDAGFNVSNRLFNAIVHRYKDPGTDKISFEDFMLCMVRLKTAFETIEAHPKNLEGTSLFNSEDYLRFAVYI
Assay type: biochemical
Work on CC(C)C[C@H](NC(=O)[C@@H]1O[C@H]1C(=O)O)C(=O)NCCCCN=C(N)N [E64] yielded an inhibition at 100 µM of 98%. With CC(C)CCNC(=O)[C@H](CC(C)C)NC(=O)[C@H]1O[C@@H]1C(=O)O [E64c] the inhibition at 100 µM was 87%. CC(C)[C@H](NC(=O)OCc1ccccc1)C(=O)N[C@H](C=O)Cc1ccccc1 [MDL28170] (Cbz-Val-Phe-aldehyde) showed an inhibition at 100 µM of 94%.
